The text below walks through data of patent US10253035B2 (priority 2016, dated 2019).

Each structure is given as a SMILES string. “Also recorded” adds a separate entry of the source. Like-named read-outs stand apart in the source and are kept apart here. Some results are limits rather than exact numbers.

Data set [1] concerns the target T1, Eis_Mtb (Mycobacterium tuberculosis, UniProt P9WFK7). It is filed as biochemical.
Data set [2] addresses T1, Eis_Mtb. As to the kind of experiment: biochemical. It is filed as biochemical.
The next data set concerns Mtb H37Rv. The format is cell-based.
A further data set concerns AAC(3)-IV. As to the kind of experiment: Selectivity: KAN acetylation by AAC(3)-IV. The conditions noted are these: for inhibition of KAN acetylation by AAC(3)-IV (in words): concentrations as high as 200 μM. It is filed as biochemical, E. coli.
The next data set addresses AAC(6′)-Ie/APH(2″)-Ia (Staphylococcus aureus, UniProt P0A0C1). As to the kind of experiment: Selectivity: KAN acetylation by AAC(6′)-Ie/APH(2″)-Ia. It is filed as biochemical.
In a further data set the target is AAC(2′)-Ic (Mycobacterium tuberculosis, UniProt P9WQG9). The experiment in a line: biochemical. On the set-up: species or system Mtb.
For data set [3], the system named is A549, HEK-293, and J774A.1 cells. The conditions noted are these: KAN alone at sub-IC50 concentrations (FIG. 9).
Where [4] appears, read: activity of KAN against Mtb H37Rv with compound at concentration tested (100x IC50 or 100 μM), Example 1, two experiments.
Setting [5] is: KAN MIC for H37Rv Mtb in the presence of compound at the specified concentration, Example 4.
The mark [6] stands for this setting: concentrations as high as 200 μM.

AAC(6′)-Ie/APH(2″)-Ia, sequence (P0A0C1 whole entry): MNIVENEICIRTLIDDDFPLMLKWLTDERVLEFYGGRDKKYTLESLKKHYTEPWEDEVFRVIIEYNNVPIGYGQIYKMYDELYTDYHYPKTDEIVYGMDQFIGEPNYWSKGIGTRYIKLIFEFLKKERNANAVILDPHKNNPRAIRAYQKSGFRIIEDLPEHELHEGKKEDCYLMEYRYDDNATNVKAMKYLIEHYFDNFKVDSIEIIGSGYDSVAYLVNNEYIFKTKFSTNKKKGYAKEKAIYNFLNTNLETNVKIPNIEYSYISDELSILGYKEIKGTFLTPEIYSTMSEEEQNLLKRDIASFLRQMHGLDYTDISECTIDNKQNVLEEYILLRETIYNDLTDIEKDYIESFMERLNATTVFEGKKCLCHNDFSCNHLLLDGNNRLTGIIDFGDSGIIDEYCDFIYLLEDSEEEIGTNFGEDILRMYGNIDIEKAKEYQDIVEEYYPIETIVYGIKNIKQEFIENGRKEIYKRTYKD
AAC(2′)-Ic, sequence (P9WQG9 whole entry): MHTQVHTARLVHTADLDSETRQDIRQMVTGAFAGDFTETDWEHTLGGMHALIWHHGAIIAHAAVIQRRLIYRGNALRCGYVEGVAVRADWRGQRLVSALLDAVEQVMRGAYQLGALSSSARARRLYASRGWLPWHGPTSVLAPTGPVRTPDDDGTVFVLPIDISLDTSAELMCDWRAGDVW
T1 sequence (P9WFK7 2-402 limits assumed): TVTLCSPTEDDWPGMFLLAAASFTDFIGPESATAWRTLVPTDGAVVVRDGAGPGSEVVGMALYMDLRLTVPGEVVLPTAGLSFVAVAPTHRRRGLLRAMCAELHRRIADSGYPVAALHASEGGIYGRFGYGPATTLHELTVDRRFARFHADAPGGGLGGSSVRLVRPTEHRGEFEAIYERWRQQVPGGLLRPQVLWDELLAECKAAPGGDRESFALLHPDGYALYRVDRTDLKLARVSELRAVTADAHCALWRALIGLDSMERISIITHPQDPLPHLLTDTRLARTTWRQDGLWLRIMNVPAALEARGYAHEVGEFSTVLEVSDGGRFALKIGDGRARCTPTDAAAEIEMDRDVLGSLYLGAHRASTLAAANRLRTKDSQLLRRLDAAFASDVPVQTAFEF

On to `Cc1cc(NS(=O)(=O)c2ccc3[nH]c(=O)c(=O)[nH]c3c2)ccc1Br` [Compound 1], for which the “Eis inhibition in the HTS (in words)” value on Eis_Mtb [1] is “modest Eis inhibition; also recorded: did not display significant Eis inhibition”.

The IC50 is the concentration at which inhibition is half-maximal. `CCC(=O)Cn1c(C(=O)OC)cc2occc21` [Compound 1l] registered an IC50 at Eis_Mtb [2] greater than 200000 nM.

For the compound `COC(=O)c1cc2occc2n1CC(=O)C(C)(C)C` [Compound 1m], the “H37Rv MICKAN” value in the data set on Mtb H37Rv (setting [4]) was no more than 1.25 µg/mL. Further, the 50% inhibitory concentration (IC50) at Eis_Mtb [2] (read-out: IC50) is greater than 200000 nM.

Regarding `CCC(=O)CN1C(=O)C2(OCCO2)c2ccccc21` [Compound 2l], the “H37Rv MICKAN” value in the data set with Mtb H37Rv (setting [4]) was no more than 1.25 µg/mL. Also, the 50% inhibitory concentration (IC50) on Eis_Mtb [2] (read-out: IC50) is greater than 200000 nM.

In the case of `O=C(CN1C(=O)C2(OCCO2)c2ccccc21)c1cccc([N+](=O)[O-])c1` [Compound 2n], the IC50 at Eis_Mtb [2] (read-out: IC50) was found to be 1200 ± 400 nM.

For `O=c1[nH]c2ccc(S(=O)(=O)Nc3ccc(Cl)c(C(F)(F)F)c3)cc2[nH]c1=O` [Compound 3], the “Eis inhibition in the HTS (in words)” value on Eis_Mtb [1] is on record as “modest Eis inhibition”.

With `O=C(C[N+]1=C(c2ccc(F)c(F)c2)c2cccn2CC1)c1cccc(Cl)c1` [Compound 3d], the IC50 at Eis_Mtb [2] (read-out: IC50) came to 43 ± 6 nM.

As to `O=C(C[N+]1=C(c2ccc(F)c(F)c2)c2cccn2CC1)c1ccc(F)cc1` [Compound 3h], the IC50 at Eis_Mtb [2] (read-out: IC50) was 110 ± 30 nM.

For `CCN(CC)CCCNC1=NS(=O)(=O)C(c2ccc(C)c(C)c2)=C1C` [Compound 3i], in the data set on Mtb H37Rv (setting [5]), the “H37Rv MICKAN” value is 0.625 µg/mL.

In the case of `Cc1ccc(C(=O)C[N+]2=C(c3ccc(F)c(F)c3)c3cccn3CC2)cc1` [Compound 3k], on Eis_Mtb [2] (read-out: IC50), the IC50 turned out to be 110 ± 30 nM.

Take `CC1=C(c2ccc(F)cc2)S(=O)(=O)N=C1NCCCN1CCCCC1` [Compound 6b]: the “H37Rv MICKAN” value in the data set on Mtb H37Rv (setting [5]) is 0.625 µg/mL.

For the compound `CC1=C(c2ccc(F)cc2)S(=O)(=O)N=C1NCCCN1CCCCC1C` (centres unmarked) [Compound 7b], in the data set on Mtb H37Rv (setting [5]), the “H37Rv MICKAN” value is 0.625 µg/mL.

`CN1C(=O)C2(OCCO2)c2ccccc21` [Compound 8b]: at Eis_Mtb [1], the “Eis inhibition in the HTS (in words)” value is on record as “no Eis_Mtb inhibitory activity”.

Take `CC1=C(c2ccc(Cl)cc2)S(=O)(=O)N=C1NCCCN1CCc2ccccc2C1` [Compound 11c]: the “H37Rv MICKAN” value in the data set with Mtb H37Rv (setting [5]) came to 0.625 µg/mL.

Regarding `CC1=C(c2ccccc2)S(=O)(=O)N=C1NCCCN1CCOCC1` [Compound 13a], in the data set with Mtb H37Rv (setting [5]), the “H37Rv MICKAN” value was found to be 0.625 µg/mL.

Consider `CC1=C(c2ccc(C)cc2)S(=O)(=O)N=C1NCCCN1CCOCC1` [Compound 13e], for which the “H37Rv MICKAN” value in the data set on Mtb H37Rv (setting [5]) stood at 0.625 µg/mL.

Consider `CC1=C(c2cccc(Cl)c2)S(=O)(=O)N=C1NCCCN1CCOCC1` [Compound 13g], for which the “H37Rv MICKAN” value with Mtb H37Rv (setting [5]) was 0.625 µg/mL.

As to `CC1=C(c2ccc(C)c(C)c2)S(=O)(=O)N=C1NCCCN1CCOCC1` [Compound 13i], in the data set on Mtb H37Rv (setting [5]), the “H37Rv MICKAN” value was 0.625 µg/mL.

As to `COc1ccc(N(C)S(=O)(=O)c2ccc3[nH]c(=O)c(=O)[nH]c3c2)cc1` [Compound 14], at Eis_Mtb [1], the “Eis inhibition in the HTS (in words)” value was “inactive”.

On to `CC1=C(c2ccc(Cl)cc2)S(=O)(=O)N=C1NCCCN1CCN(C)CC1` [Compound 14c], for which the “H37Rv MICKAN” value in the data set on Mtb H37Rv (setting [5]) was 0.625 µg/mL.

Regarding `Cc1ccc(N(C)S(=O)(=O)c2ccc3[nH]c(=O)c(=O)[nH]c3c2)cc1` [Compound 15], at Eis_Mtb [1], the “Eis inhibition in the HTS (in words)” value is “inactive”.

On to `CCN1CCN(CCCNC2=NS(=O)(=O)C(c3ccc(C)cc3)=C2C)CC1` [Compound 15e], for which the “H37Rv MICKAN” value with Mtb H37Rv (setting [5]) lay within 0.625 to 1.25 µg/mL.

In the case of `CCN1CCN(CCCNC2=NS(=O)(=O)C(c3ccc(C(C)C)cc3)=C2C)CC1` [Compound 15f], in the data set with Mtb H37Rv (setting [5]), the “H37Rv MICKAN” value lay in the range of 0.625 to 1.25 µg/mL.

Regarding `CC1=C(c2ccc(C)c(C)c2)S(=O)(=O)N=C1NCCCN1CCN(C2CCCCC2)CC1` [Compound 17i], the “H37Rv MICKAN” value in the data set with Mtb H37Rv (setting [5]) was in the range of 0.625 to 1.25 µg/mL.

As for `CN(c1ccc(Br)cc1)S(=O)(=O)c1ccc2[nH]c(=O)c(=O)[nH]c2c1` [Compound 29], on Eis_Mtb [1] (single-point HTS of library compounds), the “Eis inhibition in the HTS (in words)” value was “potently inhibited Eis activity”.

For the compound `CC1=C(c2ccccc2)S(=O)(=O)N=C1NCCN1CCCCC1` [Compound 33a], the “H37Rv MICKAN” value in the data set on Mtb H37Rv (setting [5]) stood at 0.625 µg/mL.

With `CC1=C(c2ccc(C)cc2)S(=O)(=O)N=C1NCCN1CCOCC1` [Compound 35e], in the data set on Mtb H37Rv (setting [5]), the “H37Rv MICKAN” value was determined as 0.625 µg/mL.

With `CC1=C(c2cccc(Cl)c2)S(=O)(=O)N=C1NCCN1CCOCC1` [Compound 35g], the “H37Rv MICKAN” value with Mtb H37Rv (setting [5]) was 0.625 µg/mL.

For `CC1=C(c2cccc(Br)c2)S(=O)(=O)N=C1NCCN1CCOCC1` [Compound 35h], the “H37Rv MICKAN” value in the data set on Mtb H37Rv (setting [5]) turned out to be 0.625 µg/mL.

Regarding `CC1=C(c2ccc(C)c(C)c2)S(=O)(=O)N=C1NCCN1CCOCC1` [Compound 35i], the “H37Rv MICKAN” value in the data set with Mtb H37Rv (setting [5]) was 0.625 µg/mL.

With `COc1ccc(C2=C(C)C(NCCN3CCN(C)CC3)=NS2(=O)=O)cc1` [Compound 36d], in the data set with Mtb H37Rv (setting [5]), the “H37Rv MICKAN” value turned out to be 0.625 µg/mL.

Turning to `CCN1CCN(CCNC2=NS(=O)(=O)C(c3ccc(F)cc3)=C2C)CC1` [Compound 37b], the “H37Rv MICKAN” value in the data set on Mtb H37Rv (setting [5]) turned out to be 0.625 µg/mL.

In the case of `CCN1CCN(CCNC2=NS(=O)(=O)C(c3ccc(OC)cc3)=C2C)CC1` [Compound 37d], in the data set with Mtb H37Rv (setting [5]), the “H37Rv MICKAN” value lay in the range of 0.625 to 1.25 µg/mL.

As usually defined, the inhibition is how much of the control response was suppressed. Take `COc1cccc(N(C)S(=O)(=O)c2ccc3[nH]c(=O)c(=O)[nH]c3c2)c1` [Compound 39]: the “inhibition of KAN acetylation by AAC(3)-IV (in words)” value (“inhibition … by AAC(3)-IV (in words)” below) in the data set on AAC(3)-IV is “did not inhibit KAN acetylation”. Also, on AAC(6′)-Ie/APH(2″)-Ia, the “inhibition of KAN acetylation by AAC(6′)-Ie/APH(2″)-Ia (in words)” value is “did not inhibit KAN acetylation”. Moreover, the inhibition at 200 µM at AAC(2′)-Ic (read-out: inhibition of the AAC(2′)-Ic activity) worked out at 15%.

On to `CN(c1ccc2ccccc2c1)S(=O)(=O)c1ccc2[nH]c(=O)c(=O)[nH]c2c1` [Compound 46], for which the “inhibition … by AAC(3)-IV (in words)” value in the data set with AAC(3)-IV is “did not inhibit KAN acetylation”. In addition, at AAC(6′)-Ie/APH(2″)-Ia (setting [6]), the “inhibition of KAN acetylation by AAC(6′)-Ie/APH(2″)-Ia (in words)” value is given as “did not inhibit KAN acetylation”. Moreover, the “inhibition of KAN acetylation by AAC(2′)-Ic (in words)” value against AAC(2′)-Ic (setting [6]) is recorded as “did not inhibit KAN acetylation”.

For the compound `CC1=C(c2ccc(F)cc2)S(=O)(=O)N=C1N1CCC(N2CCCCC2)CC1` [Compound 46b], the “% activity” value came to 100% with AAC(3)-IV (AAC(3)-IV activity at 200 μM inhibitor relative to that without inhibitor), 80% on AAC(6′)-Ie/APH(2″)-Ia (acetylation activity of AAC(6′)-Ie/APH(2″)-Ia at 200 μM inhibitor relative to that without inhibitor) and 100% on AAC(2′)-Ic (200 µM). Besides, the “inhibition … by AAC(3)-IV (in words)” value in the data set on AAC(3)-IV is “no inhibition by either compound was observed”. On AAC(6′)-Ie/APH(2″)-Ia (setting [6]), the “inhibition of KAN acetylation by AAC(6′)-Ie/APH(2″)-Ia (in words)” value is given as “no inhibition by either compound was observed”. Further, the “inhibition of KAN acetylation by AAC(2′)-Ic (in words)” value against AAC(2′)-Ic is recorded as “no inhibition by either compound was observed”. The “H37Rv MICKAN” value in the data set with Mtb H37Rv (setting [5]) was in the range of 0.625 to 1.25 µg/mL. In addition, the 50% inhibitory concentration (IC50) at Eis_Mtb [2] (read-out: IC50) was found to be 92 ± 21 nM.

With `COc1cc(N(C)S(=O)(=O)c2ccc3[nH]c(=O)c(=O)[nH]c3c2)cc2ccccc12` [Compound 47], the “inhibition of purified Eis (in words)” value on Eis_Mtb [2] (dose-response assay) is given as “loss of Eis inhibition”.

For `CCCN1CCN(C2=NS(=O)(=O)C(c3ccc(C)c(C)c3)=C2C)CC1` [Compound 62i], the “H37Rv MICKAN” value in the data set on Mtb H37Rv (setting [5]) came to 0.625 µg/mL.

`CC1=C(c2ccc(F)cc2)S(=O)(=O)N=C1NCc1ccccc1` [Compound 89b]: in the data set on Mtb H37Rv (setting [5]), the “H37Rv MICKAN” value was determined as 1.25 µg/mL.

For `CC1=C(c2ccc(F)cc2)S(=O)(=O)N=C1NCc1ccccn1` [Compound 112b], the “H37Rv MICKAN” value with Mtb H37Rv (setting [5]) stood at 0.625 µg/mL.

With `CC1=C(c2ccc(C)c(C)c2)S(=O)(=O)N=C1NCC(=O)NCc1ccc(C)o1` [Compound 116i], the “H37Rv MICKAN” value in the data set with Mtb H37Rv (setting [5]) turned out to be 1.25 µg/mL.

For `NC[C@H]1O[C@H](O[C@H]2[C@H](O)[C@@H](O[C@H]3O[C@H](CO)[C@@H](O)[C@H](N)[C@H]3O)[C@H](N)C[C@@H]2N)[C@H](O)[C@@H](O)[C@@H]1O` [KAN, kanamycin A], the “effect on cell growth (in words)” value in data set [3] is “promotes cell growth”.

As for `COC(=O)c1cc2occc2n1CC(=O)c1cccc(OC)c1` [if], the IC50 against Eis_Mtb [2] is greater than 200000 nM.
